Consider 9 molecules from US4939125A, “Acyl derivatives of urdamycin A, their preparation and their use” (Hoechst Aktiengesellschaft, priority 1986, dated 1990).

Format in all cases: cell-based
Experiment [1] concerns L 1210 leukemia cells. The experiment is described as follows: In vitro cytostatic activity, colony formation (Hamburger and Salmon), continuous incubation. The settings on record: L 1210, continuous incubation, 5 to 7 days at 37° C., colonies from 60 μm, carried out 4 times, deviation less than 15%; for IC50: Mus musculus, L1210, read-out: IC50, Strain test, continuous. How it is done:
(§1) The experiment was carried out in accordance with the process of Hamburger and Salmon [New Engl. J. Med. 298, 1321-1327 (1978)]. The medium was replaced by McCoy 5A, and the number of cells was reduced to 5×10^2 cells/plate.
A continuous incubation of cells with various concentrations of the test substance from Examples 1 to 5 and 5',3B,4B,4C,8-penta-O-acetylurdamycin A was carried out. The compounds to be tested were applied to the agar plates before plating-out the cell cultures. The cell cultures then grew for 5 to 7 days in the incubation in an atmosphere of 5% of CO2, 20% of O2 and 95% relative atmospheric humidity at 37° C. After this time, the number of cell colonies having a diameter from 60 μm was determined (in %) relative to the number of cell colonies which had grown in comparison without test substance.
(§2) The IC50 value for continuous and 1-hour incubation was determined from the dose/action curve.
(§3) In all cases, the experiments were carried out 4 times. The deviation in the results was less than 15%.

For a further experiment, the system named is L 1210 tumor cells. The experiment in a line: Proliferation experiment (MTT). The settings on record: carried out 4 times, deviation less than 15%; for IC50: Mus musculus, L1210, L 1210, 72 hours at 37° C., read-out: IC50, Proliferation test. How it is done: L 1210 tumor cells at the exponential growth phase (5×10^3 cells/ml, Roswell Park Memorial Institute (RPMI) medium) were incubated in a microtiter plate with […] recesses for a period of 72 hours at 37° C., 5% of CO2 and 95% relative atmospheric humidity and various concentrations of the test substances from Examples 1 to 5 and also 5',3B,4B,4C,8-penta-O-acetylurdamycin A. After 65 hours, 50 μl of 3-(4,5-dimethylthiazol-2-yl)-2,5-diphenyltetrazolium bromide (MTT) (2.5 mg/ml of MIT in phosphate buffer saline (PBS)) were added. The MTT was reduced by living cells into the red, water-insoluble dyestuff formazan. After a further 7 hours, the supernatant medium was carefully removed. Formazan was dissolved by adding 100 μl of dimethyl sulfoxide per recess and subsequently shaking gently. The extinction of each recess was determined using a multisan 340 CC photometer (Messrs. Flow) at 491 nm. The results were determined from the extinction ratio of cells with test substance to cells without test substance.
as §3

Experiment [2] deals with L 1210 leukemia cells. The experiment in a line: In vitro cytostatic activity, colony formation (Hamburger and Salmon), 1-hour incubation. The settings on record: L 1210, 1 hour incubation at 37° C., then washed and plated, carried out 4 times, deviation less than 15%; for IC50: Mus musculus, L1210, read-out: IC50, Strain test, 1 hour. On the procedure:
as §1
In the test, the cells were incubated at 37° C. for 1 hour at various concentrations of the test substance. The cells were then washed twice with McCoy 5A solution and subsequently applied to agar plates in accordance with the method of Hamburger and Salmon. The cells were subsequently cultivated as described above, and the number of cell colonies was determined (evaluation as in a).
as §2, §3

Converted amounts (≈) assume the structure as drawn.

Consider `CC(=O)OC1CCC(OC23C(=O)CC(C)(O)CC2(O)C=CC2=C3C(=O)c3ccc(C4CC(OC5CCC(OC6CC(OC(C)=O)C(OC(C)=O)C(C)O6)C(C)O5)C(OC(C)=O)C(C)O4)c(O)c3C2=O)OC1C` (stereo not drawn) [5',3B,4B,4C-Tetra-O-acetylu. A, 5',3B,4B,4C-tetra-O-acetylurdamycin A], for which the IC50 with L 1210 leukemia cells [1] was 0.078 µg/mL (≈ 0.077 µM); in the experiment with L 1210 tumor cells, less than 1 µg/mL; in the experiment on L 1210 leukemia cells [2], 0.25 µg/mL (≈ 0.247 µM).
Take `CC(=O)OC1CC(OC2CCC(OC3CC(c4ccc5c(c4O)C(=O)C4=C(C5=O)C5(OC6CCC(O)C(C)O6)C(=O)CC(C)(O)CC5(O)C=C4)OC(C)C3O)OC2C)OC(C)C1O` (stereo not drawn) [3B-O-Acetylurdamycin A, 3B-O-acetylurdamycin A]: the IC50 is 0.28 µg/mL (≈ 0.316 µM) with L 1210 leukemia cells [1], less than 1 µg/mL in the experiment with L 1210 tumor cells and 2.2 µg/mL (≈ 2.48 µM) in the experiment with L 1210 leukemia cells [2].
In the case of “3B,4B,8-tri-O-acetylurdamycin A [3B,4B,8-Tri-O-acetylu. A]”, the “IC50, Strain test, continuous” value in the experiment on L 1210 leukemia cells [1] was determined as 0.4 µg/mL. Besides, in the experiment on L 1210 tumor cells (L 1210, 72 hours at 37° C.), the “IC50, Proliferation test” value is less than 1 µg/mL. Further, in the experiment with L 1210 leukemia cells [2], the “IC50, Strain test, 1 hour” value is 1.1 µg/mL.
As for `CCCCCCCC(=O)OC1C(O)CC(OC2CCC(OC3CC(c4ccc5c(c4O)C(=O)C4=C(C5=O)C5(OC6CCC(O)C(C)O6)C(=O)CC(C)(O)CC5(O)C=C4)OC(C)C3O)OC2C)OC1C` (stereo not drawn) [4B-O-Octanoylurdamycin A], the IC50 in the experiment on L 1210 tumor cells is less than 1 µg/mL; in the experiment on L 1210 leukemia cells [2], 0.09 µg/mL (≈ 0.0927 µM).
With `CCCCCCCC(=O)OC1CC(OC2CCC(OC3CC(c4ccc5c(c4O)C(=O)C4=C(C5=O)C5(OC6CCC(O)C(C)O6)C(=O)CC(C)(O)CC5(O)C=C4)OC(C)C3O)OC2C)OC(C)C1O` (stereo not drawn) [3B-O-Octanoylurdamycin A], the IC50 in the experiment with L 1210 tumor cells was less than 1 µg/mL; with L 1210 leukemia cells [2], 0.26 µg/mL (≈ 0.268 µM).
As to `CC(=O)Oc1c(C2CC(OC3CCC(OC4CC(OC(C)=O)C(OC(C)=O)C(C)O4)C(C)O3)C(OC(C)=O)C(C)O2)ccc2c1C(=O)C1=C(C2=O)C2(OC3CCC(OC(C)=O)C(C)O3)C(=O)CC(C)(O)CC2(O)C=C1` (stereo not drawn) [Penta-O-acetylu. A, 5',3B,4B,4C,8-penta-O-acetylurdamycin A, reference compound], the IC50 is 0.042 µg/mL (≈ 0.0398 µM) in the experiment on L 1210 leukemia cells [1], less than 1 µg/mL with L 1210 tumor cells and 0.12 µg/mL (≈ 0.114 µM) with L 1210 leukemia cells [2].
The matching figures for `CC(=O)OC1CCC(OC23C(=O)CC(C)(O)CC2(O)C=CC2=C3C(=O)c3ccc(C4CC(OC5CCC(OC6CC(O)C(OC(C)=O)C(C)O6)C(C)O5)C(O)C(C)O4)c(O)c3C2=O)OC1C` (stereo not drawn) [4B,4C-Di-O-acetylu. A, 4B,4C-di-O-acetylurdamycin A]: 0.13 µg/mL (≈ 0.14 µM), less than 1 µg/mL and 0.85 µg/mL (≈ 0.915 µM).
With `CC(=O)Oc1c(C2CC(OC3CCC(OC4CC(OC(C)=O)C(OC(C)=O)C(C)O4)C(C)O3)C(OC(C)=O)C(C)O2)ccc2c1C(=O)C1=C(C2=O)C2(OC3CCC(O)C(C)O3)C(=O)CC(C)(O)CC2(O)C=C1` (stereo not drawn) [5',3B,4B,8-Tetra-O-acetylu. A, 5',3B,4B,8-tetra-O-acetylurdamycin A], the values for the IC50 with L 1210 leukemia cells [1] and in the experiment with L 1210 tumor cells were 0.075 µg/mL (≈ 0.074 µM) and less than 1 µg/mL, respectively.
With `CC(=O)OC1CC(OC2CCC(OC3CC(c4ccc5c(c4O)C(=O)C4=C(C5=O)C5(OC6CCC(O)C(C)O6)C(=O)CC(C)(O)CC5(O)C=C4)OC(C)C3O)OC2C)OC(C)C1OC(C)=O` (stereo not drawn) [3B,4B-Di-O-acetylu. A, 3B,4B-di-O-acetylurdamycin A], the figures for the IC50 with L 1210 leukemia cells [1], in the experiment on L 1210 tumor cells and in the experiment on L 1210 leukemia cells [2] were 0.11 µg/mL (≈ 0.118 µM), less than 1 µg/mL and 0.35 µg/mL (≈ 0.377 µM), respectively.
